Each structure is given as a SMILES string. Activity calls are given as the source filed them. The rule behind the calls is not given here.

Series [1] can be described thus: Induction of AFT3 gene expression in mouse 3T3-L1 cells assessed as relative gene expression level at 50 uM incubated for 8 days by real time-PCR analysis (reference value: 1.00). It is filed as functional. As to conditions: time 8 day.
The subject of series [2] is 3T3-L1. Description: Induction of AFT3 expression in mouse 3T3-L1 cells at 50 to 100 uM incubated for 6 days by Western blot analysis. The series is classed as functional, cell-based. To be noted: dose 50-100 µM, time 6.0 day. A general note: Immunoblotting shows a protein as a band on a membrane.
The nature of series [3]: (§1) Cytotoxicity against mouse 3T3-L1 adipocytes assessed as reduction in cell viability. The series is classed as toxicity, cell-based. As to conditions: 3T3-L1 adipocytes.
For series [4], the system named is 3T3-L1. Kind of series: Downregulation of lipid accumulation in mouse 3T3-L1 pre-adipocyte model at 50 to 100 uM incubated for […] by Oil Red O staining based analysis. It is filed as functional, cell-based. To be noted: dose 50-100 µM.
For series [5], the system named is Mus musculus. Description: Inhibition of high fat diet induced metabolic disturbance in C57BL/6 mouse model assessed as reduction in size of epididymal white adipose tissue at 40 mg/kg, ip. The series is classed as functional, organism-based.
Series [6] has as its system Mus musculus. Description: Inhibition of high fat diet induced metabolic disturbance in C57BL/6 mouse model assessed as reduction in inguinal white adipose tissue weight at 40 mg/kg, ip. It is filed as functional, organism-based.
Series [7] is filed under the species Mus musculus. Description: Anti-hyperglycemic activity in 16 hrs overnight fasted high fat diet induced C57BL/6 mouse assessed as reduction in glucose intolerance measured at upto 120 mins. The series is classed as functional, organism-based.
For series [8], the system named is Mus musculus. Description: Hepatoprotective activity in high fat diet induced C57BL/6 mouse assessed as reduction in GOT level at 40 mg/kg administered thrice weekly. It is filed as functional, organism-based.
Series [9] is filed under the species Mus musculus. Description: Anti-hyperglycemic activity in 16 hrs overnight fasted high fat diet induced C57BL/6 mouse assessed as reduction in insulin resistance measured at upto 120 mins. It is filed as functional, organism-based.
In series [10] the test system is Mus musculus. Description: Protection against hyperlipidemia in high fat diet-fed C57BL/6 mouse model assessed as reduction in total plasma cholesterol level at 40 mg/kg administered thrice weekly. It is filed as functional, organism-based.
For series [11], the species on record is Mus musculus. Kind of series: Inhibition of high fat diet induced metabolic disturbance in C57BL/6 mouse model assessed as reduction in hypertrophic eWAT adipocytes by H and E staining based analysis. The series is classed as functional, cell-based.
In series [12] the test system is Mus musculus. Kind of series: Hepatoprotective activity in high fat diet induced C57BL/6 mouse assessed as reduction in GPT level at 40 mg/kg administered thrice weekly. The series is classed as functional, organism-based.
The test system of series [13] is Mus musculus. Description: Protection against hyperlipidemia in high fat diet-fed C57BL/6 mouse model assessed as reduction in hypo-triglyceridemic level at 40 mg/kg administered thrice weekly. It is filed as functional, organism-based.
Series [14] can be described thus: Inhibition of high fat diet induced metabolic disturbance in C57BL/6 mouse model assessed as reduction in body weight at 40 mg/kg, ip administered 3 times weekly for 10 weeks (reference value: 34.86 +/-[…]). The series is classed as functional.
For series [15], the species on record is Mus musculus. Kind of series: Inhibition of high fat diet induced metabolic disturbance in C57BL/6 mouse model assessed as reduction in hypertrophic iWAT adipocytes by H and E staining based analysis. The series is classed as functional, cell-based.
Series [16] relates to Mus musculus. Kind of series: Inhibition of high fat diet induced metabolic disturbance in C57BL/6 mouse model assessed as reduction in epididymal white adipose tissue weight at 40 mg/kg, ip. It is filed as functional, organism-based.
The subject of series [17] is Mus musculus. Kind of series: Reduction in hepatic steatosis in high fat diet induced metabolic disturbance in C57BL/6 mouse model at 40 mg/kg, ip by hematoxylin and eosin staining based assay. The series is classed as functional, organism-based.
In series [18] the test system is Mus musculus. Kind of series: Inhibition of high fat diet induced metabolic disturbance in C57BL/6 mouse model assessed as reduction in […] adipose tissue weight at 40 mg/kg, ip. It is filed as functional, organism-based.
In series [19] the test system is 3T3-L1. The series is described as §1. The series is classed as toxicity, cell-based. To be noted: 3t3-l1.

For `O=c1oc2c3ccccc3ccc2c2occ(C(F)(F)F)c12`, the Activity in series [1] worked out at 1.44.

Take `Cc1n[nH]c2c1c(=O)oc1cc(F)ccc12`: the Activity in [1] turned out to be 1.46.

As for `O=c1oc2cc(Br)ccc2c2c1C(O)(C(F)(F)F)CO2` (centres undefined), the Activity in series [1] turned out to be 1.08.

For `Cc1[nH]nc(-c2ccc3ccccc3c2O)c1C(=O)O`, the Activity in [1] is given as 1.2.

As to `COc1ccc2c(c1)oc(=O)c1c(C)onc12`, the Activity in series [1] came to 1.62.

Consider `COc1cccc2c1oc(=O)c1c(C)n[nH]c12`, for which the Activity in [1] is 4.78. For the same molecule, the result in the series with 3T3-L1 [2] and in the series on 3T3-L1 [4] was Active. In [3], the half-maximal cytotoxic concentration (CC50) – broadly, the concentration giving 50% cytotoxicity – was > 100 µM.

For `COc1ccc2c(c1)oc(=O)c1c(C3CC3)coc12`, the Activity in series [1] came out at 1.96.

On to `CC1(C)Oc2c(c(=O)oc3c2ccc2ccccc23)C1(C)C`, for which the Activity in series [1] was determined as 3.22.

Take `Cn1ncc2c3ccc4ccccc4c3oc(=O)c21`: the Activity in series [1] is 1.44.

On to `COc1ccc2c(c1)oc(=O)c1c(C(F)(F)F)coc12`, for which the Activity in series [1] is listed as 2.8.

Take `COc1cccc2c1oc(=O)c1c(C(F)(F)F)n[nH]c12`: in series [1], the Activity came out at 1.81.

With `COc1ccc2c3c(c(=O)oc2c1)C(O)(C(F)(F)F)CO3` (centres undefined), the Activity in series [1] is 1.39.

As for `COc1ccc2c(c1)oc(=O)c1c(C)n[nH]c12`, the inhibition entry with Mus musculus [5], in the series with Mus musculus [6], in the series filed under Mus musculus [11], in the series listed under Mus musculus [15], in the series on Mus musculus [16] and with Mus musculus [18] was “Active” throughout. Also, the Activity in series [1] stood at 4.29; in series [14], 30 g. Besides, the outcome in the series with 3T3-L1 [2], in the series listed under Mus musculus [7], in the series filed under Mus musculus [9], in the series on Mus musculus [10], with Mus musculus [12] and in the series on Mus musculus [13] was Active. Also, in the series with Mus musculus [17], the result was Active. In addition, the outcome with Mus musculus [8] was inactive. The CC50 in series [3] is > 100 µM.

Take `O=C(O)c1coc2c1c(=O)oc1c3ccccc3ccc21`: in series [1], the Activity was determined as 1.06.

As to `O=c1oc2c3ccccc3ccc2c2[nH]nc(C(F)(F)F)c12`, the Activity in series [1] is reported as 1.62.

For the molecule `O=c1oc2cc(OCc3ccncc3)ccc2c2occ(C(F)(F)F)c12`, the Activity in series [1] is given as 1.23.

For `Cc1coc2c1c(=O)oc1cc(Br)ccc12`, the Activity in series [1] is on record as 1.28.

As to `O=c1oc2cc(O)ccc2c2occ(C(F)(F)F)c12`, in [1], the Activity stood at 1.4.

In the case of `O=c1oc2cc(Br)ccc2c2[nH]nc(C(F)(F)F)c12`, the Activity was 7.31 in series [1] and “Toxic” with 3T3-L1 [19].

`C[C@@H]1c2c(c3ccc4ccccc4c3oc2=O)O[C@@H]1C`: the inhibition result with Mus musculus [5], in the series with Mus musculus [6], in the series filed under Mus musculus [11], in the series filed under Mus musculus [15], in the series with Mus musculus [16] and in the series on Mus musculus [18] was “Active” in each case. Also, the Activity turned out to be 2.1 in [1] and 30.5 g in series [14]. The outcome in the series listed under Mus musculus [7], in the series listed under Mus musculus [9] and with Mus musculus [10] was Active. Further, the outcome in the series on Mus musculus [8] and with Mus musculus [12] was inactive.

On to `O=c1oc2c(ccc3ccccc32)c2c1C(O)(C(F)(F)F)CO2` (centres undefined), for which the Activity in series [1] turned out to be 2.19.

`COc1cccc2oc(=O)c3c(C)n[nH]c3c12`: in series [1], the Activity amounted to 0.98.

For `Cc1coc2c1c(=O)oc1c3ccccc3ccc21`, the Activity in series [1] was found to be 1.94.

`O=c1oc2c3ccccc3ccc2c2occ(CO)c12`: the Activity in [1] is 1.39.

In the case of `OCc1c(C(F)(F)F)coc1-c1ccc2ccccc2c1O`, the Activity in series [1] came to 1.41.

As for `COc1ccc(-c2n[nH]c(C)c2C(=O)O)c(O)c1`, in series [1], the Activity worked out at 1.07.

For the molecule `COc1ccc2c(c1)oc(=O)c1c(C(F)(F)F)n[nH]c12`, the Activity in series [1] is on record as 1.55.

`Cc1n[nH]c2c1c(=O)oc1c3ccccc3ccc21`: the Activity in series [1] was found to be 1.84.

As for `O=c1oc2cc(O)ccc2c2c1C(O)(C(F)(F)F)CO2` (centres undefined), the Activity in series [1] was 0.99.

With `O=c1oc2c3ccccc3ccc2c2occ(C3CC3)c12`, in [1], the Activity was 2.92.

Consider `Cc1ccc2c(c1)oc(=O)c1c(C)n[nH]c12`, for which the Activity in series [1] is 1.38.

On to `Cc1n[nH]c2c1c(=O)oc1cc(Br)ccc12`, for which, in series [1], the Activity amounted to 2.12.

For the origin of these results see ChEMBL document CHEMBL5352449, “Exploration and biological evaluation of 7-methoxy-3-methyl-1H-chromeno[4,3-c]pyrazol-4-one as an activating transcription factor 3 inducer for managing metabolic syndrome” (Eur J Med Chem, 2023).
